Results from patent publication US5753617A, “Peptide inhibitors of cellular adhesion” (Centocor, Inc., priority 1995, dated 1998).
Like-named read-outs stand apart in the source and are kept apart here. Where a SMILES comes first, the peptide text is derived from it. Bridges are numbered along the chain shown (N, C = ends). [ ]: non-standard residue; d: D form. The star is where a group is joined. NHBu = CCCCN*

Tests used:
[1] = disulfide bond, water
[2] = target: T1, P-selectin (Homo sapiens, UniProt P16109); experiment: Inhibition of human neutrophil adhesion to purified P-selectin immobilized on plastic wells; assay type: cell-based; conditions: inhibiting the binding of human neutrophils to P-selectin
T1 construct: P-selectin is isolated from human platelet lysates; from tissue; host or cells: human platelets (outdated platelet packs from a blood bank)
T1 sequence (P16109 42-830): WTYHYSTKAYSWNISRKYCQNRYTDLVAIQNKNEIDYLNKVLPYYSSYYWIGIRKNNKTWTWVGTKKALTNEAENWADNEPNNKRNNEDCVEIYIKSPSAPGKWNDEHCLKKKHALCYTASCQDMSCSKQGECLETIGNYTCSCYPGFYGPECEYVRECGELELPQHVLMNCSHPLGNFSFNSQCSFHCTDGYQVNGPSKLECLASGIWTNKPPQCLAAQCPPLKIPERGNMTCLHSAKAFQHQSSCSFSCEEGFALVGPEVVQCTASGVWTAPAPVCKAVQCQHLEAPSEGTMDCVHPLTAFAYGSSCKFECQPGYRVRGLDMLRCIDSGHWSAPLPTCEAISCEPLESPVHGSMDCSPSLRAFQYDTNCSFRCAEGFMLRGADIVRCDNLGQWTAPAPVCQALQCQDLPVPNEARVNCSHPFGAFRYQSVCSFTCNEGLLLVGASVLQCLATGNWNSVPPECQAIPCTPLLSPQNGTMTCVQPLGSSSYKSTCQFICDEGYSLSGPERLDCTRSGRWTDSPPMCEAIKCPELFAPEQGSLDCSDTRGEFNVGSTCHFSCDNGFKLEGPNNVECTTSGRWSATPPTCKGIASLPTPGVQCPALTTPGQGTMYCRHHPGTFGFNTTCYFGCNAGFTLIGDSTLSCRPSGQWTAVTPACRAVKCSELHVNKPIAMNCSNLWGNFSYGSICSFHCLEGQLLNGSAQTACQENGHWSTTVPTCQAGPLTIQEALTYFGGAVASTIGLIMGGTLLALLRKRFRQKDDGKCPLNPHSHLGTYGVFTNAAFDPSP
Outline: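 Isolated human neutrophils (2×10^5 per well) in HBSS with Ca2+/Mg2+ and HSA added to wells coated overnight at 4° C with platelet-derived P-selectin (5 micrograms/mL), HSA-blocked; 20 min at 22° C. Nonadherent cells removed by inverted centrifugation at 150 g; adherent cells quantified by myeloperoxidase activity.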

Structure (SMILES) | IC50 [2] [µM] | other results
CCCCNC(=O)[C@H](CCC(N)=O)NC(=O)[C@@H](Cc1c[nH]c2ccccc12)NC(=O)[C@H](NC(=O)[C@@H](Cc1c[nH]c2ccccc12)NC(=O)[C@H]1CSSC[C@@H](NC(=O)[C@@H](CCCCN)NC(=O)[C@H](N)CCCNC(=N)N)C(=O)NCC(=O)N[C@@H](Cc2ccccc2)C(=O)N1)[C@H](C)O [(102)] (H-[dR][dK][dC]GF[dC][dW][dT][dW]Q-NHBu; disulfide 3-6) | 8 | ring closure, yield of all isomers ([1]; from CCCCNC(=O)[C@H](CCC(N)=O)NC(=O)[C@@H](Cc1c[nH]c2ccccc12)NC(=O)[C@H](NC(=O)[C@@H](Cc1c[nH]c2ccccc12)NC(=O)[C@@H](CS)NC(=O)[C@H](Cc1ccccc1)NC(=O)CNC(=O)[C@@H](CS)NC(=O)[C@@H](CCCCN)NC(=O)[C@H](N)CCCNC(=N)N)[C@H](C)O, DMSO, 0.681 mM): 21.5%
CC(C)[C@@H](NC(=O)[C@@H](Cc1c[nH]c2ccccc12)NC(=O)[C@H](NC(=O)[C@@H](Cc1c[nH]c2ccccc12)NC(=O)[C@H]1CSSC[C@@H](NC(=O)[C@@H](CCCCN)NC(=O)[C@H](N)CCCNC(=N)N)C(=O)N[C@H](Cc2c[nH]cn2)C(=O)N[C@@H](Cc2ccccc2)C(=O)N1)[C@H](C)O)C(N)=O [(47)] (H-[dR][dK][dC][dH]F[dC][dW][dT][dW][dV]-NH2; disulfide 3-6) | 7 | ring closure, yield of all isomers ([1]; from CC(C)[C@@H](NC(=O)[C@@H](Cc1c[nH]c2ccccc12)NC(=O)[C@H](NC(=O)[C@@H](Cc1c[nH]c2ccccc12)NC(=O)[C@@H](CS)NC(=O)[C@H](Cc1ccccc1)NC(=O)[C@@H](Cc1c[nH]cn1)NC(=O)[C@@H](CS)NC(=O)[C@@H](CCCCN)NC(=O)[C@H](N)CCCNC(=N)N)[C@H](C)O)C(N)=O, DMSO, 0.698 mM, 24.0 h): 3.5%
CC(C)[C@@H](NC(=O)[C@@H](Cc1c[nH]c2ccccc12)NC(=O)[C@H](NC(=O)[C@@H](Cc1c[nH]c2ccccc12)NC(=O)[C@H]1CSSC[C@@H](NC(=O)[C@@H](CCCCN)NC(=O)[C@H](N)CCCNC(=N)N)C(=O)N2CCC[C@H]2C(=O)N[C@@H](Cc2ccccc2)C(=O)N1)[C@H](C)O)C(N)=O [(84)] (H-[dR][dK][dC]PF[dC][dW][dT][dW][dV]-NH2; disulfide 3-6) | 26.4 | ring closure, yield of all isomers ([1]; from CC(C)[C@@H](NC(=O)[C@@H](Cc1c[nH]c2ccccc12)NC(=O)[C@H](NC(=O)[C@@H](Cc1c[nH]c2ccccc12)NC(=O)[C@@H](CS)NC(=O)[C@H](Cc1ccccc1)NC(=O)[C@@H]1CCCN1C(=O)[C@@H](CS)NC(=O)[C@@H](CCCCN)NC(=O)[C@H](N)CCCNC(=N)N)[C@H](C)O)C(N)=O, air (copper wire, ammonium acetate pH 8.5), 0.756 mM, 25.0 °C): 12%
CC[C@@H](C)[C@H]1NC(=O)[C@H](NC(=O)[C@@H](CCCCN)NC(=O)[C@H](N)CCCNC(=N)N)CSSC[C@H](C(=O)N[C@H](Cc2c[nH]c3ccccc23)C(=O)N[C@@H](C(=O)N[C@H](Cc2c[nH]c3ccccc23)C(=O)N[C@@H](C(N)=O)C(C)C)[C@H](C)O)NC(=O)[C@H](Cc2ccccc2)NC1=O [(93)] (H-[dR][dK][dC][dI]F[dC][dW][dT][dW][dV]-NH2; disulfide 3-6) | 67.5 | ring closure, yield of all isomers ([1]; from CC[C@@H](C)[C@@H](NC(=O)[C@@H](CS)NC(=O)[C@@H](CCCCN)NC(=O)[C@H](N)CCCNC(=N)N)C(=O)N[C@@H](Cc1ccccc1)C(=O)N[C@H](CS)C(=O)N[C@H](Cc1c[nH]c2ccccc12)C(=O)N[C@@H](C(=O)N[C@H](Cc1c[nH]c2ccccc12)C(=O)N[C@@H](C(N)=O)C(C)C)[C@H](C)O, DMSO, 0.671 mM, 16.0 h): 22.3%
CC(C)[C@@H](NC(=O)[C@@H](Cc1ccccc1)NC(=O)[C@H](NC(=O)[C@@H](Cc1c[nH]c2ccccc12)NC(=O)[C@H]1CSSC[C@@H](NC(=O)[C@@H](CCCCN)NC(=O)[C@H](N)CCCNC(=N)N)C(=O)NCC(=O)N[C@@H](Cc2ccccc2)C(=O)N1)[C@H](C)O)C(N)=O [(79)] (H-[dR][dK][dC]GF[dC][dW][dT][dF][dV]-NH2; disulfide 3-6) | 7.7 | ring closure, yield of all isomers ([1]; from CC(C)[C@@H](NC(=O)[C@@H](Cc1ccccc1)NC(=O)[C@H](NC(=O)[C@@H](Cc1c[nH]c2ccccc12)NC(=O)[C@@H](CS)NC(=O)[C@H](Cc1ccccc1)NC(=O)CNC(=O)[C@@H](CS)NC(=O)[C@@H](CCCCN)NC(=O)[C@H](N)CCCNC(=N)N)[C@H](C)O)C(N)=O, DMSO, 0.101 mM): 15.2%

Further lines, with some results ahead:

IC50 [2] [µM] | Structure (SMILES) | other results
944 | CC(C)[C@@H](NC(=O)[C@@H](Cc1c[nH]c2ccccc12)NC(=O)[C@H](NC(=O)[C@@H](Cc1c[nH]c2ccccc12)NC(=O)[C@H]1CSSC[C@@H](NC(=O)[C@@H](CCCCN)NC(=O)[C@H](N)CCCNC(=N)N)C(=O)NCC(=O)N[C@@H](CC(=O)O)C(=O)N1)[C@H](C)O)C(N)=O [(42)] (H-[dR][dK][dC]GD[dC][dW][dT][dW][dV]-NH2; disulfide 3-6) | ring closure, yield of all isomers ([1]; from CC(C)[C@@H](NC(=O)[C@@H](Cc1c[nH]c2ccccc12)NC(=O)[C@H](NC(=O)[C@@H](Cc1c[nH]c2ccccc12)NC(=O)[C@@H](CS)NC(=O)[C@H](CC(=O)O)NC(=O)CNC(=O)[C@@H](CS)NC(=O)[C@@H](CCCCN)NC(=O)[C@H](N)CCCNC(=N)N)[C@H](C)O)C(N)=O, Cu wire, dilute NH4OH, pH 8, 3.19 mM, 20.0 h): 9.7%
50 | CC(C)[C@@H](NC(=O)[C@@H](Cc1c[nH]c2ccccc12)NC(=O)[C@H](NC(=O)[C@@H](Cc1c[nH]c2ccccc12)NC(=O)[C@H]1CSSC[C@@H](NC(=O)[C@@H](CCCCN)NC(=O)[C@H](N)CCCNC(=N)N)C(=O)NCC(=O)N[C@H](Cc2ccccc2)C(=O)N1)[C@H](C)O)C(N)=O [(13)] (H-[dR][dK][dC]G[dF][dC][dW][dT][dW][dV]-NH2; disulfide 3-6) | ring closure, yield of all isomers ([1]; from CC(C)[C@@H](NC(=O)[C@@H](Cc1c[nH]c2ccccc12)NC(=O)[C@H](NC(=O)[C@@H](Cc1c[nH]c2ccccc12)NC(=O)[C@@H](CS)NC(=O)[C@@H](Cc1ccccc1)NC(=O)CNC(=O)[C@@H](CS)NC(=O)[C@@H](CCCCN)NC(=O)[C@H](N)CCCNC(=N)N)[C@H](C)O)C(N)=O, DMSO, 0.242 mM, 16.0 h): 10.7%
26.2 | CC(C)[C@@H](NC(=O)[C@@H](Cc1c[nH]c2ccccc12)NC(=O)[C@H](NC(=O)[C@@H](Cc1c[nH]c2ccccc12)NC(=O)[C@H]1CSSC[C@@H](NC(=O)[C@@H](CCCCN)NC(=O)[C@H](N)CCCNC(=N)N)C(=O)NCC(=O)N[C@@H](CC(N)=O)C(=O)N1)[C@H](C)O)C(N)=O [(41)] (H-[dR][dK][dC]GN[dC][dW][dT][dW][dV]-NH2; disulfide 3-6) | ring closure, yield of all isomers ([1]; from CC(C)[C@@H](NC(=O)[C@@H](Cc1c[nH]c2ccccc12)NC(=O)[C@H](NC(=O)[C@@H](Cc1c[nH]c2ccccc12)NC(=O)[C@@H](CS)NC(=O)[C@H](CC(N)=O)NC(=O)CNC(=O)[C@@H](CS)NC(=O)[C@@H](CCCCN)NC(=O)[C@H](N)CCCNC(=N)N)[C@H](C)O)C(N)=O, Cu wire, dilute NH4OH (printed NH2OH), pH 8, 3.2 mM, 20.0 h): 6%
18.7 | CC(C)C[C@H]1NC(=O)CNC(=O)[C@H](NC(=O)[C@@H](CCCCN)NC(=O)[C@H](N)CCCNC(=N)N)CSSC[C@H](C(=O)N[C@H](Cc2c[nH]c3ccccc23)C(=O)N[C@@H](C(=O)N[C@H](Cc2c[nH]c3ccccc23)C(=O)N[C@@H](C(N)=O)C(C)C)[C@H](C)O)NC1=O [(53)] (H-[dR][dK][dC]G[dL][dC][dW][dT][dW][dV]-NH2; disulfide 3-6) | ring closure, yield of all isomers ([1]; from CC(C)C[C@@H](NC(=O)CNC(=O)[C@@H](CS)NC(=O)[C@@H](CCCCN)NC(=O)[C@H](N)CCCNC(=N)N)C(=O)N[C@H](CS)C(=O)N[C@H](Cc1c[nH]c2ccccc12)C(=O)N[C@@H](C(=O)N[C@H](Cc1c[nH]c2ccccc12)C(=O)N[C@@H](C(N)=O)C(C)C)[C@H](C)O, DMSO, 0.252 mM, 25.0 °C, 48.0 h): 17.4%
287 | CC(C)[C@@H](NC(=O)[C@@H](Cc1c[nH]c2ccccc12)NC(=O)[C@H](NC(=O)[C@@H](Cc1c[nH]c2ccccc12)NC(=O)[C@H]1CSSC[C@@H](NC(=O)[C@@H](CCCCN)NC(=O)[C@H](N)CCCNC(=N)N)C(=O)NCC(=O)N[C@@H](CCC(=O)O)C(=O)N1)[C@H](C)O)C(N)=O [(66)] (H-[dR][dK][dC]GE[dC][dW][dT][dW][dV]-NH2; disulfide 3-6) | ring closure, yield of all isomers ([1]; from CC(C)[C@@H](NC(=O)[C@@H](Cc1c[nH]c2ccccc12)NC(=O)[C@H](NC(=O)[C@@H](Cc1c[nH]c2ccccc12)NC(=O)[C@@H](CS)NC(=O)[C@H](CCC(=O)O)NC(=O)CNC(=O)[C@@H](CS)NC(=O)[C@@H](CCCCN)NC(=O)[C@H](N)CCCNC(=N)N)[C@H](C)O)C(N)=O, Cu wire, NH4OH, 3.16 mM, 20.0 h): 7.4%
